# Measurements as given in PMC6851324, “Design and development of stapled transmembrane peptides that disrupt the activity of G-protein–coupled receptor oligomers” (The Journal of Biological Chemistry, 2019).
# Where two headings read alike, the source gives them in different places. Where a SMILES comes first, the peptide text is derived from it. Bridges are numbered along the chain shown (N, C = ends). Where no end group is shown, it is not given here. [ ]: non-standard residue; d: D form. S5 = C=CCCC[C@](C)(N)C(=O)O; Nle = CCCC[C@H](N)C(=O)O
# How the values were obtained:
# [1] = molecular target: T1, trypsin from porcine pancreas (Sus scrofa, UniProt P00761); experiment: Proteolytic stability against trypsin; type: in vitro ADME; conditions: pig
# T1 construct: purchased Sigma; host or cells: porcine pancreas
# T1 sequence (P00761 9-231): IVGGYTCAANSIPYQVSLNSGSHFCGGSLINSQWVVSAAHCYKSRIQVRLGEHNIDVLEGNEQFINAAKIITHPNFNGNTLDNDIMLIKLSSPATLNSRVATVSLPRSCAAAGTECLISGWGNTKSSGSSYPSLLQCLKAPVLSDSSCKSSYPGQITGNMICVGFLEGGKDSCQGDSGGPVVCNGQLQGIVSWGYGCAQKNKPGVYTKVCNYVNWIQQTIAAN
# Method: Figure 4. Biophysical analysis of stapled peptides. A, amino acid sequence alignment of the targeted TM regions and disrupting peptides. Cys residues are in the reduced state. Blue bridges indicate the stapled amino acid residues. […] Yields, purity, and MALDI-TOF data are shown for the stapled peptides and negative control. B, CD analysis of 30–50 μM peptides at 20 °C. For proteolytic stability studies, the peptide solution (55.5 μM for trypsin and chymotrypsin and 11.1 μM for serum) was incubated in the presence of 0.55 μg/ml trypsin from porcine pancreas (E), α-chymotrypsin (F), or mouse serum (G) at 37 °C for the indicated times (indicated on the x axis). Data are mean ± S.E. (error bars) (n = 3) percentage of intact peptide normalized to t = 0. Proteolytic half-lives and putative cleavage sites (predicted using the Expasy bioinformatics server's model with a 50% probability of cleavage) are indicated at the bottom of each panel. Positive correlation between helicity and half-life in trypsin/chymotrypsin (C) or serum (D) was determined by two-tailed Pearson's correlation test. TEXT PRINTED IN THE PICTURE: (B) TM7-TAT: Ellipticity (%): 3.4 | (B) TM6-TAT: Ellipticity (%): 18.3 | (B) TM5-TAT: Ellipticity (%): 20.9 | (B) 8: Ellipticity (%): 58.3 | (B) 9: Ellipticity (%): 46.4 | (B) 10: Ellipticity (%): 36.8 | (B) 11: Ellipticity (%): 46 | (E) TM7-TAT: Half-life (min): 21; #Cleavage sites: 8 | (E) TM6-TAT: Half-life (min): 40; #Cleavage sites: 7 | (E) TM5-TAT: Half-life (min): 33; #Cleavage sites: 8 | (E) 8: Half-life (min): 307; #Cleavage sites: 0 | (E) 9: Half-life (min): 178; #Cleavage sites: 0 | (E) 10: Half-life (min): 75; #Cleavage sites: 6 | (E) 11: Half-life (min): 84; #Cleavage sites: 0 | (F) TM7-TAT: Half-life (min): 22; #Cleavage sites: 6 | (F) TM6-TAT: Half-life (min): 32; #Cleavage sites: 7 | (F) TM5-TAT: Half-life (min): 28; #Cleavage sites: 7 | (F) 8: Half-life (min): 425; #Cleavage sites: 4 | (F) 9: Half-life (min): 198; #Cleavage sites: 3 | (F) 10: Half-life (min): 63; #Cleavage sites: 2 | (F) 11: Half-life (min): 79; #Cleavage sites: 4 | (G) TM7-TAT: Half-life (hours): 0.46 | (G) TM6-TAT: Half-life (hours): 0.55 | (G) TM5-TAT: Half-life (hours): 0.81 | (G) 8: Half-life (hours): ≥18 | (G) 9: Half-life (hours): 14.7 | (G) 10: Half-life (hours): 11.7 | (G) 11: Half-life (hours): 5.3 DOUBTS OF THE COPYIST ABOUT THIS PICTURE: Panel A table (Yield, Rt, Purity, [M+H+] calc., [M+H+] Peak Found for 7-11) left out as synthesis and mass-spectrum characterisation data; uncertain whether [M+H+] calc. should count as a molecular weight
# Dose–response curves were fitted using a four-parameter logistic nonlinear regression mode. Peptide stability data were fitted using a nonlinear regression mode for dissociation kinetics. All statistical tests, curve fitting, and graphing were performed using GraphPad Prism 8 (GraphPad Software, La Jolla, CA).
# To 100 μl of peptide solution (100 μM, dissolved in ammonium bicarbonate buffer, pH 7.5), 60 μl of ammonium bicarbonate buffer (pH 7.5) was added, together with 20 μl of temperature-equilibrated (37 ± 1 °C) trypsin (5 μg/ml) from porcine pancreas (Sigma, 13,000–20,000 BAEE units/mg of protein). Peptides were incubated for 15, 30, 60, 120, 240, and 480 min, and then MeOH (HPLC Grade) + 0.05% TFA was added. The samples were then centrifuged (15,000 rpm), and the supernatant was analyzed, using Fmoc-Gly (10 μl, 0.2 mM) as an internal standard. The digestion at each time point was repeated three times to give the average values along with S.D. The amount of intact peptide that remained in the mixture was quantified by RP-HPLC. The experiment was repeated twice on different days.
# 5-HT2AR–CB1R heteromers = test system: 5-HT2AR–CB1R heteromers; set-up: method as in 2 sources, ref 16 = [16]; PMID 26158621; doi:10.1371/journal.pbio.1002194; 16. Viñals X. , Moreno E. , Lanfumey L. , Cordomí A. , Pastor A. , de La Torre R. , Gasperini P. , Navarro G. , Howell L. A. , Pardo L. , Lluís C. , Canela E. I. , McCormick P. J. , Maldonado R. , and ||| ref 4, unpublished observations; conditions: synthetic TM-mimicking peptides fused to HIV-TAT; cited from earlier work
# [2] = isolated enzyme trypsin, 55.5 μM peptide, 0.55 μg/ml trypsin from porcine pancreas, ammonium bicarbonate buffer pH 7.5, 37 °C, 15–480 min, intact peptide by RP-HPLC (Fmoc-Gly internal standard), n = 3, nonlinear regression fit, read-out: Half-life (min), trypsin
Compound,"half-life at 55.5 μM ([1]; trypsin from porcine pancreas, pH 7.5, trypsin 0.55 μg/ml, 37 °C, pH 7.5, approximate value of running text, read-out: half-life in trypsin as stated in text (converted)) [min]","half-life at 55.5 μM ([1]; 55.5 μM peptide, 0.55 μg/ml trypsin from porcine pancreas, ammonium bicarbonate buffer pH 7.5, 37 °C, 15–480 min, intact peptide by RP-HPLC (Fmoc-Gly internal standard), n = 3, nonlinear regression fit, read-out: Half-life (min), trypsin) [min]","half-life at 55.5 μM ([1]; isolated enzyme trypsin, pH 7.5, Half-life (min), trypsin) [min]","half-life at 55.5 μM [1, 2] [min]",disruption of 5-HT2AR–CB1R heteromers (previous studies) (5-HT2AR–CB1R heteromers)
CCCC[C@H](NC(=O)[C@]1(C)CCC/C=C\CCC[C@](C)(NC(=O)[C@H](Cc2ccccc2)NC(=O)[C@H](CC(C)C)NC(=O)[C@H](CC(C)C)NC(=O)[C@H](CC(C)C)NC(=O)[C@@H](N)C(C)C)C(=O)N[C@@H](C(C)C)C(=O)N[C@@H](Cc2ccc(O)cc2)C(=O)N[C@@H](C)C(=O)N1)C(=O)N[C@@H](Cc1ccc(O)cc1)C(=O)N[C@H](C(=O)N[C@@H](CC(C)C)C(=O)N[C@@H](Cc1c[nH]c2ccccc12)C(N)=O)[C@@H](C)CC [Peptide 8] (H-VLLLF[S5]VYA[S5][Nle]YILW-NH2; staple (Z) 6-10),~300,307,–,–,–
C=CCCC[C@](C)(NC(=O)[C@H](Cc1ccc(O)cc1)NC(=O)[C@@H](N)C(C)C)C(=O)N[C@@H](Cc1ccc(O)cc1)C(=O)N[C@@H](CCCC)C(=O)N[C@@](C)(CCCC=C)C(=O)N[C@H](C(=O)N[C@@H](CC(C)C)C(=O)N[C@@H](Cc1c[nH]c2ccccc12)C(N)=O)[C@@H](C)CC [Peptide 11] (H-VY[S5]Y[Nle][S5]ILW-NH2),–,–,84,–,–
"ETYLMFWIGVTSVLLLFIVYAYMYILWGRKKRRQRRR [TM5-TAT, reference compound]",–,–,–,33,selectively disrupted
"GRKKRRQRRRKTLVLILVVLIICWGPLLAIMVY [TM6-TAT, reference compound]",–,–,–,40,selectively disrupted
